Series [1] has as its target T1, ERβ (Homo sapiens, UniProt Q92731). The experiment in a line: Radioligand competitive binding assay with [3H]E2 for ERβ (GST-ERβ-LBD). Conditions: for preference of binding ERβ over ERα: ERβ versus ERα IC50. Also noted: made in house; host or cells: Escherichia coli BL21α. As for the experimental part: Human ERβ cDNA was obtained from OriGene Technologies. The cDNA of ERβ-LBD was amplified using PCR and subcloned into a pGEX-6p-1 expression vector. The expression of GST-fused ERβ-LBD was induced by 1 mM IPTG in Escherichia coli BL21α at 16 °C for overnight. The resulting crude protein was affinity-purified using Glutathione-Sepharose 4B (Cytiva), followed by gel filtration using a Sephadex G-10 column (Cytiva).
Target sequence in this assay (Q92731 263-530): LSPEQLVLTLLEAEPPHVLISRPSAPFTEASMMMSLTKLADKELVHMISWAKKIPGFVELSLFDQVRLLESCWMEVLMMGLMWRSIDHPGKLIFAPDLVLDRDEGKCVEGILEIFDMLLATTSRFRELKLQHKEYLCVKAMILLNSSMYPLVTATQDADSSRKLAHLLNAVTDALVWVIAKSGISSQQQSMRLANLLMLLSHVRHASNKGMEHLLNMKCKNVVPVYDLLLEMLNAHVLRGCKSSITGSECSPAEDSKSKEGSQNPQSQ

Series [2] has as its target T1, ERβ. Put plainly: Luciferase reporter gene assay in HeLa cells, antagonistic activity against 10 nM E2. The class given is cell-based. Also noted: expressed in transfected cells; host or cells: HeLa. The settings on record: for ERβ antagonist activity (in words): against 10 nM E2-induced ERβ activation, 100 nM, 1 μM, 10 μM; for transcriptional activity (%) at most effective inhibitory concentration, ratio to that of 10 nM E2: HeLa cells, in the presence of 10 nM E2, 0.1, 1, 10 µM tested; for suppression of E2-induced activation: at the 10 μM concentration, 10 nM E2. How it is done:
(§1) HeLa cells were maintained in Eagle's minimum essential medium (Nissui Pharmaceutical Co, Ltd) supplemented with DCC-treated fetal bovine serum (10%, v/v) at 37 °C under 5% CO2. […] After a 24-h incubation, luciferase activity was measured using the ONE-Glo Luciferase Assay System (Promega Co) on an EnSpire multimode plate reader (PerkinElmer, Inc).
Target sequence in this assay (Q92731 whole entry, the tested form may be a part): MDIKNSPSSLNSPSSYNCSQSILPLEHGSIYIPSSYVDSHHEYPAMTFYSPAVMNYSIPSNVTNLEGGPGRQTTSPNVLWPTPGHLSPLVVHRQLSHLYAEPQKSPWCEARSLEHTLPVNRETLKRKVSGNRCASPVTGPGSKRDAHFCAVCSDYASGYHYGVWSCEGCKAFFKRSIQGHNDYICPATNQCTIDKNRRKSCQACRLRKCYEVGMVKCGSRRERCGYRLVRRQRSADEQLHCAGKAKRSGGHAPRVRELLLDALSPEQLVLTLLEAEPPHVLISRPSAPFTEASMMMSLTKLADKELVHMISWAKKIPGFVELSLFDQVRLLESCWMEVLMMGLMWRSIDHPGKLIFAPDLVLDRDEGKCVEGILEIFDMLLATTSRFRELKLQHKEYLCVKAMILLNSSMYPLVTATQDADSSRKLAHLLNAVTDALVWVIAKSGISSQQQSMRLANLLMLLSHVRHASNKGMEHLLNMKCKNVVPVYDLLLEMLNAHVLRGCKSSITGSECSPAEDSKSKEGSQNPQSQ

The target of the next series is ERβ(W335A) (Homo sapiens, UniProt Q92731, W335A). The experiment in a line: Competitive binding assay for ERβ(W335A). The settings on record: Fig. 4B. Also noted: made in house; host or cells: Escherichia coli BL21α (described for the wild-type LBD). How it is done: (§2) After successive incubation with 100 μl of 0.4% dextran-coated charcoal (DCC) (Sigma-Aldrich) in PBS (pH 7.4) on ice for 10 min, free radioligands bound to DCC were removed using a vacuum filtration system with a 96-well filtration plate (MultiScreenHTS HV, […], Merck KGaA) for the bound/free separation. The radioactivity of each eluent was measured using a liquid scintillation counter (LS6500; Beckman Coulter) and Clear-sol I (Nacalai Tesque Inc). […] Each compound was dissolved in dimethyl sulfoxide to prepare a 1.0 mM stock solution and further diluted to prepare serial dilutions (10^−12 M to 10^−5 M) in the binding buffer. […] Bound/free separation was performed as described above, and the radioactivity was determined using a MicroBeta microplate counter (PerkinElmer Inc). The IC50 value of each test compound was calculated from the dose–response curves generated via nonlinear regression analysis using Prism software (GraphPad Software Inc).

Series [3] concerns the target T1, ERβ. The experiment in a line: Competitive binding assay with [3H]4OHT for WT ERβ. Also noted: made in house; host or cells: Escherichia coli BL21α. The settings on record: for shape of competitive binding curve, WT ERβ: [3H]4OHT radioligand. How it is done:
as §2
Target sequence in this assay (Q92731 263-530): as the sequence (Q92731 263-530) above

The target of series [4] is T1, ERβ. The experiment in a line: Luciferase reporter gene assay in HeLa cells, agonistic activity. The class given is cell-based. Also noted: expressed in transfected cells; host or cells: HeLa. Conditions: for ERβ agonist activity (in words) / maximum fold induction (agonistic activity on ERβ): HeLa cells; for ERβ agonist activity (in words): WT ERβ; for maximum fold induction (agonistic activity on ERβ): ERE luciferase reporter, tested up to 10 µM. As for the experimental part: as §1
Target sequence in this assay (Q92731 whole entry, the tested form may be a part): as the sequence (Q92731 whole entry, the tested form may be a part) above
A general note: A reporter such as luciferase makes a cellular process visible.

The subject of another series is ERα. Further details: method as in PMID 31289329. Conditions: competitive binding, [3H] 17β-estradiol as radioligand; mean ± SD; read-out: Binding affinity (IC50, nM) ERα; cited from earlier work.
Where [5] appears, read: competitive binding, [3H] 17β-estradiol as radioligand, mean ± SD, read-out: Binding affinity (IC50, nM) ERβ.

Like-named read-outs stand apart in the source and are kept apart here.

Sequence of ERβ(W335A) (Q92731 263-530 W335A): as the sequence (Q92731 263-530) above, with W73A counted along it

For `Oc1ccc(C(c2ccc(O)cc2)C(Cl)(Cl)Cl)cc1` [Compound 3, 2,2-bis(p-hydroxyphenyl)-1,1,1-trichloroethane], on ERβ [1], the “preference of binding ERβ over ERα” value is listed as “three times stronger binding to ERβ than ERα”. The “ERβ antagonist activity (in words)” value at ERβ [2] was “antagonistic activities”.

For the compound `Oc1ccc(C(c2ccc(O)cc2)(C(F)(F)F)C(F)(F)F)cc1` [Compound 4, 4,4'-(perfluoropropane-2,2-diyl)diphenol], on ERβ(W335A), the “shape of competitive binding curve, ERβ(W335A)” value was “biphasic binding of BPC and BPAF was lost”. Further, the “preference of binding ERβ over ERα” value at ERβ [1] is “three times stronger binding to ERβ than ERα”. Also, at ERβ [3], the “shape of competitive binding curve, WT ERβ” value is recorded as “biphasic binding curve”. Further, the “increase of ERβ binding compared with BPA” value on ERβ [3] (compared with BPA) is recorded as around 50 fold. Also, at ERβ [4], the “ERβ agonist activity (in words)” value was “weak transcriptional activity”. The “ERβ antagonist activity (in words)” value at ERβ [2] is given as “antagonistic activities”.

Regarding `CC/C(=C(\c1ccc(O)cc1)c1ccc(OCCN(C)C)cc1)c1ccccc1` [Compound 4OHT, 4-Hydroxytamoxifen, reference compound], the “shape of competitive binding curve, WT ERβ” value at ERβ [3] is given as “biphasic curve”. For the same compound, in the series on ERα, the IC50 (usually the concentration needed to halve the response being measured) is […].

In the case of `Oc1ccc(C2(c3ccc(O)cc3)CCCCC2)cc1` [Compound 5, 4,4'-(cyclohexane-1,1-diyl)diphenol], the IC50 at ERβ [1] amounted to 21.6 ± 1.9 nM. Besides, the “maximum fold induction (agonistic activity on ERβ)” value (from here on “maximum fold induction”) at ERβ [4] was determined as 3.29. The “transcriptional activity (%) at most effective inhibitory concentration, ratio to that of 10 nM E2” value on ERβ [2] came to 19.9%.

In the case of `CCCCC(CC)C(c1ccc(O)cc1)c1ccc(O)cc1` (stereo not shown) [Compound 6, 4,4′-(2-Ethylhexylidene)bisphenol], at ERβ [1] (setting [5]), the IC50 stood at 25.9 ± 8.5 nM. At ERβ [4], the “maximum fold induction” value is given as 1.59 and the “ERβ agonist activity (in words)” value is “no agonist activity”. For the same compound, the IC50 in the series with ERα is 18.5 ± 6.7 nM. For the same compound, on ERβ [2], the “transcriptional activity (%) at most effective inhibitory concentration, ratio to that of 10 nM E2” value is given as 11.1% and the “suppression of E2-induced activation” value is on record as 90%.

Turning to `Cc1cc(C(c2ccccc2O)c2cc(C)c(O)c(C)c2C)c(C)c(C)c1O` [Compound 7, 4,4′-(2-Hydroxybenzylidene)-bis(2,3,6-trimethylphenol)], at ERβ [1] (setting [5]), the IC50 was found to be 41.5 ± 2 nM. Also, at ERβ [4], the “maximum fold induction” value was 1.45 and the “ERβ agonist activity (in words)” value is “no agonist activity”. For the same compound, the IC50 in the series with ERα was 12.3 ± 7.3 nM. On ERβ [2], the “transcriptional activity (%) at most effective inhibitory concentration, ratio to that of 10 nM E2” value stood at 6.6% and the “suppression of E2-induced activation” value stood at 90%.

For `CCC(C)(c1ccc(O)cc1)c1ccc(O)cc1` [Compound 8, 4,4'-(butane-2,2-diyl)diphenol], the IC50 at ERβ [1] was 79.8 ± 12.6 nM. Besides, the “maximum fold induction” value at ERβ [4] is 5.13. Further, on ERβ [4] (at the highest concentration of 10 μM), the “transcriptional activity as % of BPA-induced transcriptional activity” value was around 50%. The IC50 in the series on ERα was 195 ± 44 nM. Further, on ERβ [2], the “transcriptional activity (%) at most effective inhibitory concentration, ratio to that of 10 nM E2” value is on record as 28.9% and the “ERβ antagonist activity (in words)” value is given as “weak antagonist activity”. Moreover, the “inhibition of BPA-induced activation” value against ERβ [2] (as worded) is reported as 50%.

Take `Cc1cc(C2(c3ccc(O)c(C)c3)CCCCC2)ccc1O` [Compound 9, 1,1-Bis(4-hydroxy-3-methylphenyl)cyclohexane]: the figures for the IC50 on ERβ [1] (setting [5]) and in the series with ERα were 132 ± 6.5 nM and 38.6 ± 7.2 nM, respectively. The “maximum fold induction” value at ERβ [4] was 2.27. Besides, the “transcriptional activity (%) at most effective inhibitory concentration, ratio to that of 10 nM E2” value on ERβ [2] worked out at 17.0%.

`CC(C)(c1ccc(O)cc1)c1cccc(C(C)(C)c2ccc(O)cc2)c1` [Compound 10, 4,4'-(1,3-phenylenebis(propane-2,2-diyl))diphenol]: the IC50 on ERβ [1] was found to be 148 ± 80 nM. For the same compound, at ERβ [4], the “maximum fold induction” value was 1.12 and the “ERβ agonist activity (in words)” value is “no agonist activity”. In the series with ERα, the IC50 was 56.8 ± 11.7 nM. On ERβ [2], the “transcriptional activity (%) at most effective inhibitory concentration, ratio to that of 10 nM E2” value amounted to 5.4% and the “ERβ antagonist activity (in words)” value is on record as “antagonistic activity”.

As for `CC(c1ccccc1)(c1ccc(O)cc1)c1ccc(O)cc1` [Compound 11, 4,4'-(1-phenylethane-1,1-diyl)diphenol], in the series on ERα, the IC50 is 259 ± 41 nM.

`CC(C)(c1ccc(O)cc1)c1ccc(C(C)(c2ccc(O)cc2)c2ccc(O)cc2)cc1` [Compound 12, α, α, α′-Tris(4-hydroxyphenyl)-1-ethyl-4-isopropylbenzene] registered an IC50 on ERβ [1] of 212 ± 36 nM. Also, at ERβ [4], the “maximum fold induction” value is 1.02 and the “ERβ agonist activity (in words)” value is “no agonist activity”. For the same compound, in the series on ERα, the 50% inhibitory concentration (IC50) was 61.7 ± 10.4 nM. Besides, at ERβ [2], the “transcriptional activity (%) at most effective inhibitory concentration, ratio to that of 10 nM E2” value is reported as 7.7% and the “ERβ antagonist activity (in words)” value is “antagonistic activity”.

Consider `Nc1cc(C(c2ccc(O)c(N)c2)(C(F)(F)F)C(F)(F)F)ccc1O` [Compound 13, 2,2-Bis(3-amino-4-hydroxyphenyl)hexafluoropropane], for which the IC50 at ERβ [1] (setting [5]) is 224 ± 113 nM; in the series with ERα, 334 ± 112 nM. In addition, the “maximum fold induction” value on ERβ [4] was 1.67. Besides, the “transcriptional activity (%) at most effective inhibitory concentration, ratio to that of 10 nM E2” value on ERβ [2] turned out to be 86.7%.

As to `Oc1ccc(C2(c3ccc(O)cc3)c3ccccc3-c3ccccc32)cc1` [Compound 14, 9,9-Bis(4-hydroxyphenyl)fluorene], the IC50 was 325 ± 60 nM on ERβ [1] and 2230 ± 202 nM with ERα. The “maximum fold induction” value at ERβ [4] was found to be 2.47. In addition, the “transcriptional activity (%) at most effective inhibitory concentration, ratio to that of 10 nM E2” value on ERβ [2] came to 76.9%.

At ERβ [1], `Cc1cc(C2(c3ccc(O)c(C)c3)c3ccccc3-c3ccccc32)ccc1O` [Compound 15, 9,9-Bis(4-hydroxy-3-methylphenyl)fluorene] had an IC50 of 405 ± 108 nM. For the same compound, the “ERβ antagonist activity (in words)” value on ERβ [2] is listed as “weak antagonist”.

On ERβ [1], `CC(C)(c1ccc(O)cc1)c1ccc(C(C)(C)c2ccc(O)cc2)cc1` [Compound 16, 4,4'-(1,4-phenylenebis(propane-2,2-diyl))diphenol] had an IC50 of 607 ± 28 nM. Further, at ERβ [4], the “maximum fold induction” value is given as 1.44 and the “ERβ agonist activity (in words)” value is given as “no agonist activity”. Moreover, the IC50 in the series with ERα was 176 ± 35 nM. Besides, on ERβ [2], the “transcriptional activity (%) at most effective inhibitory concentration, ratio to that of 10 nM E2” value is listed as 11.8% and the “ERβ antagonist activity (in words)” value is “antagonistic activity”.

Consider `Nc1ccc(Oc2ccc(C(c3ccc(Oc4ccc(N)cc4)cc3)(C(F)(F)F)C(F)(F)F)cc2)cc1` [Compound 17, 2,2-Bis[4-(4-aminophenoxy)phenyl]hexafluoropropane], for which the IC50 on ERβ [1] was 609 ± 81 nM; with ERα, 1030 ± 375 nM. Besides, at ERβ [4], the “maximum fold induction” value came to 1.46. Also, the “transcriptional activity (%) at most effective inhibitory concentration, ratio to that of 10 nM E2” value on ERβ [2] is given as 99.1%.

Take `Cc1cc(C(C)(C)c2ccc(C(C)(C)c3cc(C)c(O)c(C)c3)cc2)cc(C)c1O` [Compound 20, α,α′-Bis(4-hydroxy-3,5-dimethylphenyl)-1,4-diisopropylbenzene]: at ERβ [1] (setting [5]), the IC50 is above 10000 nM. Moreover, on ERβ [4], the “maximum fold induction” value stood at 0.99 and the “ERβ agonist activity (in words)” value is listed as “no agonist activity”. For the same compound, the IC50 with ERα is 733 ± 628 nM. Also, at ERβ [2], the “transcriptional activity (%) at most effective inhibitory concentration, ratio to that of 10 nM E2” value amounted to 6.4% and the “ERβ antagonist activity (in words)” value is “antagonistic activity”.

Consider `C[C@]12CC[C@@H]3c4ccc(O)cc4CC[C@H]3[C@@H]1CC[C@@H]2O` [Compound E2, Estradiol, reference compound], for which, in the series with ERα, the IC50 is 0.88 ± 0.13 nM.

The values are drawn from publication PMC8551653, “Bisphenol A derivatives act as novel coactivator-binding inhibitors for estrogen receptor β” (The Journal of Biological Chemistry, 2021).
